According to publication PMC8072286, “Gcn5-Related N-Acetyltransferases (GNATs) With a Catalytic Serine Residue Can Play Ping-Pong Too” (Frontiers in Molecular Biosciences, 2021):

Molecular target: T1, PA3944 (Pseudomonas aeruginosa, UniProt Q9HX72)
T1 construct: heterologous expression; N-terminal polyhistidine tag kept for kinetics, removed for crystallization; monomer in solution
Experiment: X-ray crystal structure ([…] Å)
Format: binding
Conditions: co-crystallized with 5 mM AcCoA, donor site

T1 sequence (Q9HX72 whole entry): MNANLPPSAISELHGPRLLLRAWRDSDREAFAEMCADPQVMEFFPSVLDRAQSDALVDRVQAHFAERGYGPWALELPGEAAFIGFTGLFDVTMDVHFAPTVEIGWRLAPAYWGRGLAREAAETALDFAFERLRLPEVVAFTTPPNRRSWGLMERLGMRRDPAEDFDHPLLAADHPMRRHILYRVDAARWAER

| SMILES | X-ray crystal structure (1.80 Å) (AcCoA modeled in chain B) | X-ray crystal structure (1.80 Å) (CoA modeled in chain A) |
| --- | --- | --- |
| CC(=O)SCCNC(=O)CCNC(=O)[C@H](O)C(C)(C)COP(=O)(O)OP(=O)(O)OC[C@H]1O[C@@H](n2cnc3c(N)ncnc32)[C@H](O)[C@@H]1OP(=O)(O)O [AcCoA] | we modeled CoA in chain A and AcCoA in chain B | – |
| CC(C)(COP(=O)(O)OP(=O)(O)OC[C@H]1O[C@@H](n2cnc3c(N)ncnc32)[C@H](O)[C@@H]1OP(=O)(O)O)[C@@H](O)C(=O)NCCC(=O)NCCS [CoA] | – | we modeled CoA in chain A and AcCoA in chain B |
